Assay results reported in patent publication US11634686B2, “Method of producing naive pluripotent stem cells” (priority 2016, dated 2023).

How the values were obtained:
primed H9 hESCs = test: Autophagy by costaining for LC3 and Lamp1 (LC3II puncta); format: cell-based, human
Procedure: (§1) Immunostaining was performed using standard protocol to detect various antigens in cultured cells or frozen tissue sections. Briefly, cells or tissue sections were fixed in 4% paraformaldehyde (Sigma) for 20 min, treated with 0.1% Triton X-100 for 15 min at room temperature for permeabilization, blocked in 3% BSA for 1 hour at room temperature, and then incubated with the indicated primary antibodies (Table S1) overnight at 4° C. and secondary antibodies for 1 h at 37° C. Secondary antibodies were AlexaFluor 488, 594, and 647 (1:1,000, Thermo fisher Scientific). Alkaline phosphatase (AP) staining was performed using the Alkaline Phosphatase Kit (Millipore). Diaminobenzidine (DAB) staining was also used to detect GFP expression in frozen embryo sections according to manufacturer's protocol (Vector Laboratories). Briefly, the frozen sections on slides were thawed at room temperature for 5 min. Then the slides were treated with 0.3% H2O2 solution in PBS at room temperature for 10 min to block endogenous peroxidase activity, and then treated with 3% BSA for 45 min for blocking. […] Cells were then imaged on a Leica DMI6000B fluorescence microscope. Quantification of LC3II puncta was performed using NIH ImageJ with the AUTOCOUNTER pluggin, which calculates the percentage of cell area covered by LC3II puncta.

TFE3 = test: Torin1/rapamycin-induced nuclear translocation of TFE3 (immunostaining); format: cell-based, human; settings: primed H9 hESCs; inhibition of mTor
Procedure: We named this medium 2iLI.
as §1

primed hPSCs = test: Conversion of hPSCs from primed to naive pluripotency (Nanog+ cells among hNA+ human cells, dome-shaped colonies); format: cell-based; settings: for effect of removal of the component from 2iLI medium on Nanog+ cells and mESC-like colonies: primed H9 after Torin1 3 hr, 5 days culture on MEF
Procedure: Primed hPSCs were treated with 10 μM ROCK inhibitor Y27632 (Abcam) overnight in hESC medium. After being washed twice in phosphate-buffered saline (PBS), primed hPSCs were cultured in 2iLI medium with 10 μM Torin1 (Tocris) for 3 hours. 2iLI medium contained 50% glucose-free DMEM/F12 (Life Technologies) and 50% glucose-free Neurobasal (Life Technologies), 5 mM glucose, 1 mM glutamine, 1% NEAA, 0.1 mM […], 100 U/ml penicillin, 100 μg/ml streptomycin, 5 mg/mL bovine serum albumin (Sigma) to maintain osmolarity, 20 ng/mL recombinant human LIF (Millipore), […] human insulin (Sigma), 1 μM PD0325901 (PD, EMD Millipore), and 3 μM CHIR99021 (CH, Stemgent). For N004 iPSCs, 2iLI medium with 0.8 μM CHIR99021 was used instead. Then hPSCs were trypsinized into single cells using TrypLE (Life Technologies) for 5 min at 37° C. The single cells were plated on MEF feeders (5-6×10^4/cm^2) in 2iLI medium (without Torin1), which was changed daily. Small, bright, dome-shaped colonies appeared in 4-5 days and were picked manually at day 5-7 for dissociation by TrypLE into single cells, which were plated on fresh MEF cells. After several manual passages, mouse ESC-like colonies were uniformly seen and passaged every 3 days with TrypLE and maintained in 2iLI media (without Torin1). Immunostaining was performed using standard protocol to detect various antigens in cultured cells or frozen tissue sections. Briefly, cells or tissue sections were fixed in 4% paraformaldehyde (Sigma) for 20 min, treated with 0.1% Triton X-100 for 15 min at room temperature for permeabilization, blocked in 3% BSA for 1 hour at room temperature, and then incubated with the indicated primary antibodies (Table S1) overnight at 4° C. and secondary antibodies for 1 h at 37° C. Secondary antibodies were AlexaFluor 488, 594, and 647 (1:1,000, Thermo fisher Scientific). Alkaline phosphatase (AP) staining was performed using the Alkaline Phosphatase Kit (Millipore). Diaminobenzidine (DAB) staining was also used to detect GFP expression in frozen embryo sections according to manufacturer's protocol (Vector Laboratories). Briefly, the frozen sections on slides were thawed at room temperature for 5 min. Then the slides were treated with 0.3% H2O2 solution in PBS at room temperature for 10 min to block endogenous peroxidase activity, and then treated with 3% BSA for 45 min for blocking. The sections were incubated with primary antibody (anti-GFP) in 0.1% BSA for 30 min at room temperature, rinsed briefly in PBS 3 times (5 min each), and then incubated with biotinylated secondary antibody for 30 min followed by PBS rinsing for 3 times (5 min each). The sections were incubated with VECTASTAIN ABC reagent (Vector Laboratories) for 30 min, washed with PBS for 5 min. The sections were incubated with 100 μl peroxidase substrate solution (Sigma, D4293) on the slide under microscope until desired staining intensity and then washed with PBS to remove the substrate solution. For live imaging of mitochondria, primed or naive hPSCs were incubated in prewarmed hESC medium (for primed hPSCs) or 2iLI medium (for naive hPSCs) containing 50 nM MitoTracker Green FM or 100 nM TMRE (Life Technologies) for 15 min at 37° C. Then the staining medium was replaced with the corresponding prewarmed medium without dyes. Cells were then imaged on a Leica DMI6000B fluorescence microscope. Quantification of LC3II puncta was performed using NIH ImageJ with the AUTOCOUNTER pluggin, which calculates the percentage of cell area covered by LC3II puncta.

Molecule: CCC(=O)N1CCN(c2ccc(-n3c(=O)ccc4cnc5ccc(-c6cnc7ccccc7c6)cc5c43)cc2C(F)(F)F)CC1 [Torin1]
- induction of autophagy, combined treatment (primed H9 hESCs; 2iLI medium with 5 mM glucose and 10 μM Torin1 for 3 hr): induced autophagy most prominently
- induction of autophagy (primed H9 hESCs; primed H9 in hESC medium, mTor inhibition for 3 hr): induced autophagy
- translocation of TFE3 from cytoplasm to nucleus (TFE3): induced rapid translocation of TFE3 from cytoplasm to nucleus
- conversion of hPSCs from primed to naive pluripotency (primed hPSCs; transient treatment (10 μM for 3 hr) in 2iLI medium, 5 mM glucose, 5% O2): converted hPSCs from primed to naive pluripotency

Molecule: O=C(NOC[C@H](O)CO)c1ccc(F)c(F)c1Nc1ccc(I)cc1F [PD, PD0325901]
- effect of removal of the component from 2iLI medium on Nanog+ cells and mESC-like colonies (primed hPSCs): drastically reduced Nanog^+ cells and mESC-like colonies

Molecule: CNC(=O)c1ccccc1Oc1nc(Nc2cc(OC)c(OC)c(OC)c2)ncc1Br [SBI-0206965]
- effect on primed-to-naive conversion of blocking autophagy (primed hPSCs; primed H9 treated 3 hr, with 2iLI and Torin1, Nanog+ of hNA+ cells after five days): not significantly affected

Molecule: Cc1c[nH]c(-c2cnc(NCCNc3ccc(C#N)cn3)nc2-c2ccc(Cl)cc2Cl)n1 [CHIR99021]
- optimized concentration for conversion of N004 iPSCs to naive state (primed hPSCs; N004 iPSCs, all other conditions as in 2iLI medium, percentage of human cells positive for Nanog): 0.8 µM
- effect of removal of the component from 2iLI medium on Nanog+ cells and mESC-like colonies (primed hPSCs): drastically reduced Nanog^+ cells and mESC-like colonies

Molecule: human insulin: human insulin, component of 2iLI medium
- percentage of Nanog+ cells among all human cells (hNA+) on replacing N2 and B27 supplements (primed hPSCs; primed H9, Torin1 10 μM 3 hr, human insulin 18 μg/ml, about 5 days on MEF feeders): much higher percentage of Nanog^+ cells
- effect of removal of the component from 2iLI medium on Nanog+ cells and mESC-like colonies (primed hPSCs): drastically reduced Nanog^+ cells and mESC-like colonies

Molecule: human LIF: recombinant human Leukemia Inhibitory Factor, component of 2iLI medium
- effect of removal of the component from 2iLI medium on Nanog+ cells and mESC-like colonies (primed hPSCs): drastically reduced Nanog^+ cells and mESC-like colonies
